Results reported in US12310942B2, “Pharmaceutical compositions comprising statins and hyaluronic acid derivatives” (FIDIA FARMACEUTICI S.p.A., priority 2019, dated 2025).
Where two headings read alike, the source gives them in different places.

System: bovine cartilage biopsies
Details: IL-1β and OSM 10 ng/mL, 21 days, FIG. 3
Description: For this purpose, cartilage biopsies were collected from the patello-femoral sulcus and femoral condyles from the femur of 1 adult bovine (15-18 months). […] The biopsies (Ø=3 mm) were taken with a steel punch.
Each biopsy was transferred to a well of a 48-well MW and washed twice with 500 μL PBS 1× (Euroclone, cat. no. ECB4004L, Italy). […] The biopsies were incubated for 24 h at 37° C. 5% CO2. After incubation, the biopsies were washed with 500 μL PBS 1×, and 500 μL DMEM/F-12+2% FBS containing the dilution of the compound to be tested were added to all the wells. Each statin was used at the concentrations of 10 μM and 2.5 μM. 4 biopsies were used for each condition. After 7, 14 and 21 days, the biopsy culture medium was aspirated and replaced with 500 μL of fresh culture medium containing the appropriate concentrations of pro-inflammatory cytokines (IL-1β and OSM, 10 ng/mL) and the active ingredients to be tested. The biopsy culture medium was harvested after 21 days and used to determine the soluble collagen content. The Sircol assay was conducted according to the manufacturer's instructions, and quantitation was effected by spectrophotometric reading at 555 nm.

Compound | collagen release induced by IL-1β and OSM (statin 2.5 μM) | collagen release induced by IL-1β and OSM (statin 10 μM)
CC(C)c1c(C(=O)Nc2ccccc2)c(-c2ccccc2)c(-c2ccc(F)cc2)n1CC[C@@H](O)C[C@@H](O)CC(=O)O [atorvastatin] | significant reduction in collagen release | significant reduction in collagen release
CC[C@H](C)C(=O)O[C@H]1C[C@@H](C)C=C2C=C[C@H](C)[C@H](CC[C@@H]3C[C@@H](O)CC(=O)O3)[C@H]21 [lovastatin] | values comparable to those of the untreated control | significant reduction in collagen release
